Source: the METLIN SMRT retention time set (Domingo-Almenara et al. 2019)

test: gradient 5% acetonitrile 3 min, to 50% in 2 min, to 85% in 15 min, held 3 min, 100 µL/min; conditions: column: Zorbax Extend-C18 2.1 x 50 mm; eluents: water / acetonitrile, 0.1% formic acid
How it was run: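 Values are retention times taken from adduct peaks that software picked and an analyst inspected. The pure standards were run as mixtures of ~100 molecules on HPLC linked to a quadrupole time-of-flight mass spectrometer, in positive and negative ionization mode. A Zorbax Extend-C18 column (2.1 × 50 mm, 1.8 μm) was used at 100 μL/min with water and acetonitrile, each including 0.1% formic acid.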

In order of rising RP-LC retention time:
1. CCN(CC)c1ncnc2c1cnn2CC(=O)N1CCN(c2ccccn2)CC1  549 s
2. O=C(NCc1ccccn1)C1CCc2sc(C(=O)N3CCCCCC3)cc2C1 (stereo not drawn)  552 s
3. CC(C)C(=O)N1CC(c2noc(C3CCCN3CC3CC3)n2)C1 (stereo not drawn)  579 s
4. Nc1ccc(-c2nc3nc(N)nc(N)c3nc2-c2ccc(N)cc2)cc1  596 s
5. O=C(C1CCC1)N1CCC(Cc2nc(C3CC3)n[nH]2)CC1  598 s
6. COCCC1(N(C)C)CCN(S(=O)(=O)c2ccc(C#N)cc2)CC1  613 s
7. COc1ccc(CC(=O)N2CCN(c3cc(C)n4c(C)nnc4n3)CC2)cc1Cl  614 s
8. Cn1ccc2c(cc(C(=O)NCc3ccc(N4CCOCC4)cc3)n2C)c1=O  614 s
9. CCNc1ncnc2sc3c(c12)CCN(C(=O)CC)C3  617 s
10. COc1ccc(NC(=O)N2CCN(c3cc(-c4ccc(OC)c(OC)c4)ncn3)CC2)cc1OC  620 s
11. CCN1CCN(C(=O)Nc2ccc(C(=O)OC)cc2)c2cccnc21  621 s
12. Cc1oc(-c2[nH]ncc2C(=O)N(C)C)cc1S(=O)(=O)NCc1ccco1  622 s
13. COc1ccc(C2(C(=O)N3CC(n4ccnc4C(C)C)C3)CC2)cc1  626 s
14. O=C(c1ccco1)N1CCC2(CC1)NCCc1c2[nH]c2ccccc12  631 s
15. CN(C)C(=O)c1ccc2c(c1)nc(CN(C)C(=O)Nc1cccc(Br)c1)n2C  642 s
16. CCNC(=O)C1CCCN(c2nc3ncn(CC(=O)Nc4ccccc4F)c(=O)c3s2)C1 (stereo not drawn)  647 s
17. Cc1cccc(NC(=O)C2CCN(S(=O)(=O)c3cc(C(=O)N4CCCC4)n(C)c3)CC2)n1  653 s
18. COc1ccc(N2CCCn3c2nc2c3c(=O)n(CC(=O)O)c(=O)n2C)cc1  660 s
19. COC(=O)c1ccc(C(=O)OC)c(NC(=O)N2CCC(CN3CCCCCC3)CC2)c1  678 s
20. O=C(Nc1ccc(F)cc1)Oc1ccc[nH]c1=O  684 s
21. Cc1cc(NC(=O)Cc2csc(NC(=O)c3ccc(F)cc3)n2)sn1  701 s
22. COc1ccc(-c2c(C)noc2NC(C)=O)cc1S(=O)(=O)Nc1cccc(C#N)c1  708 s
23. CC(C)CNC(=O)c1ccc(-c2nnc3ccc(NC(=O)C4CC4)cn23)cc1  708 s
24. O=C(Cn1c2c(c3ccccc31)CCC2)NCCn1ncccc1=O  710 s
25. COc1ccc(CN2C(=O)C3(CCOCC3)CC2c2nnnn2C(C)(C)C)c(OC)c1 (stereo not drawn)  734 s
26. Cc1ccc(NC(=O)Cn2c(C)nc3onc(C)c3c2=O)cc1F  735 s
27. COCCc1noc(C2CN(C(=O)C3(c4ccc(OC)cc4)CC3)C2)n1  738 s
28. CCn1cc(CN2CCC(C(=O)NCc3cccc(Cl)c3)CC2)c2cc(OC)ccc21  744 s
29. Cc1nn(C)c2c(=O)n(CC(=O)NCc3ccc(Br)cc3)ccc12  745 s
30. CC(C)CNC(=O)CCc1nc2ccccc2n(CC(=O)NCc2ccc3c(c2)OCO3)c1=O  748 s
31. CN(C)C(=O)c1ccc2c(c1)N(CC(=O)Nc1ccc(Cl)cc1)C(=O)CS2  753 s
32. Cn1cc(C(CNC(=O)Nc2cccc(Cl)c2)c2cccnc2)c2ccccc21 (stereo not drawn)  756 s
33. COc1ccc(Cl)cc1NC(=O)N1CCCC(Cn2cnc3cccnc32)C1 (stereo not drawn)  761 s
34. CCOc1ccc(C(=O)N2CCC3(CC2)NC(=O)c2cc(F)ccc2N3C)cc1  767 s
35. CCn1c(=O)c(C(=O)NCc2cccc(OC)c2)nc2cccnc21  780 s
36. COc1ccc(CC(=O)N2CCC3(C2)C(=O)N(C)c2ccccc23)cc1 (stereo not drawn)  782 s
37. COc1ccc(OC)c(NC(=O)CSc2cc(N3CCN(c4ccccc4OC)CC3)ncn2)c1  791 s
38. CC1(CNC(=O)c2cccc(Br)c2)CCOCC1  797 s
39. COc1cccc(NS(=O)(=O)c2cc3c(s2)CCN(C(=O)C2CC2)C3)c1  801 s
40. COc1ccc(Cl)c2c(=O)c3c([nH]c12)CCN(CC(=O)Nc1cccc(C#N)c1)C3  801 s
41. COC(=O)c1ccccc1NC(=O)CCCn1cnc(-c2ccccc2)cc1=O  811 s
42. CCOC(=O)c1cccc(NS(=O)(=O)c2cc(-c3c(CC)noc3NC(C)=O)ccc2OC)c1  814 s
43. COc1cc(OC)cc(C(=O)N2CCC3(CC2)NC(=O)c2cc(Cl)ccc2N3C)c1  826 s
44. CC1Oc2ccc(S(=O)(=O)N3CCC(C(=O)Nc4ccc(F)cc4)CC3)cc2NC1=O (stereo not drawn)  829 s
45. CCOC(=O)c1c(C)[nH]c(C(=O)N2CCC(CC(=O)N3CCN(c4ccccc4)CC3)CC2)c1C  836 s
46. CCc1noc([C@@H]2CC(F)(F)CN2C(=O)c2occc2C)n1  840 s
47. CCn1nccc1C(=O)Nc1cc(-c2cc3cc(OC)ccc3n2CC)[nH]n1  846 s
48. CCC(=O)N(C1CCOCC1)C1CCN(S(=O)(=O)c2ccc(F)c(F)c2)CC1  856 s
49. CCNC(=O)N1CCc2c([nH]c3ccccc23)C12C(=O)N(C)c1ccc(Br)cc12 (stereo not drawn)  857 s
50. CCCn1c(=O)c2cc(C(=O)N3CCN(c4ccc(OC)cc4)CC3)nn2c2ccccc21  862 s
51. Cc1cc(C)n(-c2ccnc(N3CCC(C(=O)NC(C)c4ccc(F)cc4)CC3)n2)n1 (stereo not drawn)  872 s
52. c1ccc(CCCN2CCN(CCOC(c3ccccc3)c3ccccc3)CC2)cc1  874 s
53. CS(=O)(=O)N1CCC(C(=O)NCc2ccccc2)Oc2ccc(Cl)cc21 (stereo not drawn)  882 s
54. Cc1ccc(-c2nccn3cc(C(=O)NC(C)C)nc23)cc1  883 s
55. Cc1ccccc1C(=O)NCCc1c[nH]c2ccc(Cl)cc12  889 s
56. COc1ccc(-c2nnc(N3CCC(C(=O)NCc4cc(F)cc(F)c4)CC3)o2)cc1  899 s
57. CC(C)(C)C(=O)NCCN1C(=O)C2(CCCCC2)C1c1ccccc1 (stereo not drawn)  903 s
58. COCCNC(=O)C1CN(C(=O)c2ccco2)CC1c1ccc(OC)cc1OC (stereo not drawn)  922 s
59. Cc1ccc(N2CCOCC2)c2c1C(=O)c1ccccc1C2=O  927 s
60. Cc1nc(-n2nc(C)c(Cl)c2C)sc1C(=O)N1CCOCC1  953 s
61. CC1(C(=O)NCc2ccc(F)cc2)CCCN(C(=O)Nc2ccccc2Br)C1 (stereo not drawn)  955 s
62. Cc1ccc(Cn2nc3c(S(=O)(=O)N4CCCCC4)cccn3c2=O)c(C)c1  967 s
63. COc1c(C=O)c(O)cc2c1C(=O)c1ccccc1C2=O  967 s
64. Cc1cc(C)n(-c2nc(CC(=O)N3CCN(c4ccc(F)cc4)CC3)cs2)n1  968 s
65. CC(C)c1noc(-c2cc(=O)n(CC(=O)Nc3ccccc3)c3ccccc23)n1  972 s
66. COc1ccc2c(c1)C1(CCN(S(=O)(=O)c3ccc(F)c(C)c3)C1)C(=O)N2C (stereo not drawn)  973 s
67. Cc1ccc(-n2ccc(=O)c(-c3nc(-c4ccccc4C)no3)n2)cc1  987 s
68. Cn1nc(-c2nnc(-c3ccccc3)o2)c2c1CCN(S(=O)(=O)c1ccccc1C(F)(F)F)C2  990 s
69. O=C(Nc1cc(F)ccc1Cl)c1cnc(-c2ccccc2)nc1-c1ccncc1  1000 s
70. CCn1c(=O)c2ccccc2n(Cc2nc(-c3ccc(F)cc3)no2)c1=O  1010 s
71. CCOC(=O)c1cc(S(=O)(=O)N2CCCC2C(=O)Nc2cc(Cl)c(OC)cc2OC)cn1C (stereo not drawn)  1010 s
72. CS(=O)(=O)N1CCC(C(=O)NCc2ccc(Cl)cc2)Oc2ccccc21 (stereo not drawn)  1010 s
73. Cc1sc(-c2noc(C3CC3)n2)cc1S(=O)(=O)N1CCC(C(=O)NC2CCCCC2)CC1  1020 s
74. CCc1ccc(-n2nc(CO)c(C(=O)NCc3ccc4c(c3)OCO4)n2)cc1  1030 s
75. CCNS(=O)(=O)c1cccnc1Nc1ccc(Cl)cc1  1030 s
76. CC(C)CCNC(=O)C1(C)CN(S(=O)(=O)c2ccccc2)CC(=O)N1Cc1ccc(Cl)cc1 (stereo not drawn)  1040 s
77. O=S(=O)(c1cccc2nsnc12)N1CCc2nc(-c3ccc(F)cc3)ncc2C1  1040 s
78. C#C[C@]1(O)CC[C@H]2[C@@H]3CCC4=CC(=O)CCC4=C3C=C[C@@]21CC  1050 s
79. O=c1c2sccc2n(Cc2nc(-c3cccc(Br)c3)no2)c(=O)n1-c1cccc(F)c1  1080 s
80. CC(C)Cn1c(=O)c(C(=O)NC2CCCCCC2)nc2cccnc21  1090 s
81. COc1ccc2c(c1)Cc1sc(NC(=O)c3ccc(Br)cc3)nc1-2  1130 s
82. CCc1ccc(Oc2cc(N3CCC(C(=O)Nc4ccc(C)c(C)c4)CC3)ncn2)cc1  1160 s
83. CC(C)c1nc(-n2cccc2)sc1C(=O)NCCc1ccccc1  1190 s
84. Cc1ccc(-c2nc(NC(=O)CCCOc3ccc(Cl)cc3)sc2C)cc1  1250 s
85. CCN1C(=O)COc2ccc(-c3noc(-c4ccc(C(F)(F)F)cc4)n3)cc21  1260 s
86. CCc1nc(-c2ccc(-c3noc(COc4ccc(F)cc4)n3)cc2)cs1  1310 s
87. CCOC(=O)c1ccccc1NC(=O)C1=Cc2ccccc2OC=C1  1410 s
88. COc1ccc(OC(=O)c2cc3c(C)nn(-c4cccc(F)c4)c3s2)cc1  1460 s
